In data set [1] the test system is Staphylococcus aureus (H-Heatley strain, NRRL B-314). The data set can be described thus: Antibacterial bioassay (Westhead). The data set is classed as cell-based. Particulars: S. aureus H-Heatley NRRL B-314 bioassay; free acid. The source says:
The compounds of this invention are useful antibacterial agents. In this aspect, these compounds may be used in the same manner in which the parent antibiotic is used, as described in U.S. Pat. No. 3,923,823. A bioassay for the antibacterial activity of A-23187 has been described by J. E. Westhead in Antimicrobial Agents and Chemotherapy 11 (5), 916-918 (1977). The test organism for this bioassay is Staphylococcus aureus (H-Heatley strain, NRRL B-314).

Data set [2] can be described thus: Acute toxicity in mice, intraperitoneal. The conditions noted are these: mouse, in vivo, ip, mg/kg × 1, free acid. How it is done:
The compounds of the present invention are, in general, less toxic than the parent antibiotic. Table II summarizes the acute toxicities of representative compounds in mice, expressed as LD50, when the compounds are administered intraperitoneally.

In data set [3] the target is cation transport ATPase in liver mitochondria. Put plainly: In vitro inhibition of cation transport ATPase in liver mitochondria. The data set is classed as biochemical. The source says: In yet another aspect, the compounds of this invention are active as inhibitors of the enzyme ATPase. ATPase, an alkali-metal-sensitive enzyme found in cell membranes, is involved in the energy necessary for active transport. "Active transport" refers to the energy-requiring series of operations whereby intracellular and extracellular fluids maintain their compositions. Inhibitors of ATPase reduce the energy required for active transport. Table III summarizes the results of in vitro tests measuring inhibition of cation transport ATPase in liver mitochondria [measured as half effective concentration (Ic50) in mcg/ml].

The conditions of data set [4]: cited from earlier work.

“Also recorded” adds a separate entry of the source. A value given as a limit tells only on which side of the number the result lay.

Usually LD50 stands for the dose at which mortality reaches 50%. Take `CNc1ccc2oc(C[C@H]3O[C@@]4(CC[C@H]3C)O[C@H]([C@H](C)C(=O)c3cc(I)c(I)[nH]3)[C@H](C)C[C@H]4C)nc2c1C(=O)O` [23,24-diiodo-A-23187, 5-(methylamino)-2-[[3β,9α,11β-trimethyl-8-[1α-methyl-2-oxo-2-(4,5-diiodo-1H-pyrrol-2-yl)ethyl]-1,7-dioxaspiro-[5.5]undec-2β-yl]methyl]-4-benzoxazolecarboxylic acid]: in data set [1], the Bioassay was found to be 560 µg/mL. The molecule also returned an LD50 in data set [2] of 100 mg/kg. The “half effective concentration (Ic50), ATPase induced by K^+ monazomycin” value in data set [3] is 0.8 µg/mL.

`CNc1ccc2oc(C[C@H]3O[C@@]4(CC[C@H]3C)O[C@H]([C@H](C)C(=O)c3cc(I)c[nH]3)[C@H](C)C[C@H]4C)nc2c1C(=O)O` [23-iodo-A-23187, 5-(methylamino)-2-[[3β,9α,11β-trimethyl-8-[1α-methyl-2-oxo-2-(4-iodo-1H-pyrrol-2-yl)ethyl]-1,7-dioxaspiro[5.5]undec-2β-yl]methyl]-4-benzoxazolecarboxylic acid]: in data set [1], the Bioassay amounted to 1331 µg/mL. In data set [2], the LD50 is 25 mg/kg. Also, in data set [3], the “half effective concentration (Ic50), ATPase induced by CaCl2” value worked out at 5 µg/mL and the “half effective concentration (Ic50), ATPase induced by K^+ monazomycin” value is below 0.05 µg/mL.

`CNc1ccc2oc(C[C@H]3O[C@@]4(CC[C@H]3C)O[C@H]([C@H](C)C(=O)c3ccc[nH]3)[C@H](C)C[C@H]4C)nc2c1C(=O)O` [A-23187] had a Bioassay in data set [1] of 1060 µg/mL. The LD50 in data set [2] came out at 5.8 mg/kg. Also, in data set [3], the “half effective concentration (Ic50), ATPase induced by CaCl2” value is 0.5 µg/mL and the “half effective concentration (Ic50), ATPase induced by K^+ monazomycin” value is 0.5 µg/mL. Also, in data set [4] (Mg^2+ vs Ca^2+), the “transport of Mg^2+ compared with Ca^2+” value is “transports Mg^2+ with a similar efficiency to Ca^2+”. The “discrimination for divalent over monovalent cations” value in data set [4] (divalent vs monovalent cations) is reported as “substantially selective for the transport of divalent over monovalent cations; also recorded: not complete”.

Source of the values: US4228293A, “Iodo-A-23187 derivatives” (Eli Lilly and Company, priority 1978, dated 1980).
